Here are results for one compound from patent publication US20070270471A1, “Compounds Which Potentiate Glutamate Receptor and Uses Thereof in Medicine” (GLAXO GROUP LIMITED, priority 2004, published 2007).

SMILES strings stand for the structures. pEC50: −log10 of the molar value.

As a reminder, the pEC50 is the negative decadic logarithm of the EC50, by convention in mol/L.

In the test the target is T1, human GluR2 flip (unedited) AMPA receptor subunit (Homo sapiens, UniProt P42262).
T1 construct: expressed in transfected cells; host or cells: HEK 293 cells, stably expressing or transiently transfected
Briefly: Calcium influx fluorescence assay (FLUO4, FLIPR). The class given is cell-based. The conditions noted are these: HEK 293 cells expressing human GluR2 flip (unedited); potentiation of response to 100 μM glutamate; peak fluorescence. As to the method: The ability of the compounds of the invention to potentiate glutamate receptor-mediated response were determined a) by using fluorescent calcium-indicator dyes such as FLUO4 and additionally for some compounds, b) by measuring glutamate-evoked current recorded from human GluR2 flip unedited HEK293 cells.
a) Calcium Influx Fluorescence Assay
384 well plates were prepared containing confluent monolayer of HEK 293 cells either stably expressing or transiently transfected with human GluR2 flip (unedited) AMPA receptor subunit. These cells form functional homotetrameric AMPA receptors. […]
The cell plate was then transferred into a fluorescence imaging plate based reader [such as the FLIPR384 (Molecular Devices)]. A baseline fluorescence reading was taken over a 10 to 240 second period, and then 10 μL from each plate containing a compound of the invention made up in standard buffer solution (in a concentration range from 100 μM to 10 μM) was added (to give a final concentration in the range 30 μM to 3 μM). The fluorescence was read over 5 minute period. […] The fluorescence was then read over a 4 minute period. The activities of the compounds of the invention and reference compounds were determined by measuring peak fluorescence after the last addition. The activity was also expressed relative to the fluorescence increase induced by cyclothiazide at their maximum response (i.e. greater than 30 μM).

T1 sequence (P42262 25-883 isoform P42262-2 limits assumed): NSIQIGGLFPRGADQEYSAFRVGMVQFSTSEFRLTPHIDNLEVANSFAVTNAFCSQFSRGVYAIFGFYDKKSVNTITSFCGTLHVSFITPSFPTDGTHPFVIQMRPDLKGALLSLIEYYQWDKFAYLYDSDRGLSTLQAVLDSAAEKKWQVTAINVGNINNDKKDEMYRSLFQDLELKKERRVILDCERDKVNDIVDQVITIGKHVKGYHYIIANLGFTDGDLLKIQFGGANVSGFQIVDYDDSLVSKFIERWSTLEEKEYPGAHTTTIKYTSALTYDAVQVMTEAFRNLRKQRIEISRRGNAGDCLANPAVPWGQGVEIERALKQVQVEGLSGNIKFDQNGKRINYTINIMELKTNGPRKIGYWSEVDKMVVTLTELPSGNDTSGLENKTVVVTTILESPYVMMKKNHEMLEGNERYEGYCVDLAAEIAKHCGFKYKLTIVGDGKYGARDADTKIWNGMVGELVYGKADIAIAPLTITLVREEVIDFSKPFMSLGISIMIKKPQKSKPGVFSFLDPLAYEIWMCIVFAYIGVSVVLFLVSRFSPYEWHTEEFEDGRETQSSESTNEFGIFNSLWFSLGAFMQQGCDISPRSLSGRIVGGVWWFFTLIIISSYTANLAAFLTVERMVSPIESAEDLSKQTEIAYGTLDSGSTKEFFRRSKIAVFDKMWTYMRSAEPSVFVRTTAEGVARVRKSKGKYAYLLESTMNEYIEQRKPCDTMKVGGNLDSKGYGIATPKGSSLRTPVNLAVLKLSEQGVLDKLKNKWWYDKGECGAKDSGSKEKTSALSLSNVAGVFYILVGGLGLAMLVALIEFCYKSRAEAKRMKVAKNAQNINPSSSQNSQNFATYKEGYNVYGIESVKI

Regarding `CC(C)S(=O)(=O)N[C@@H]1CN(C)C[C@H]1c1ccc(-c2cccc(N(C)S(C)(=O)=O)c2)cc1` (relative stereo) [Example 19, N-(trans-1-methyl-4-{3′-[methyl(methylsulfonyl)amino]-4-biphenylyl}-3-pyrrolidinyl)-2-propanesulfonamide], the pEC50 was 5.80.
